Experiments:
Type in all cases: cell-based, human
A549 cells [1] = test: Anchorage Independence/Soft Agar Assay, A549; set-up: PERCENTAGE SURVIVAL RELATIVE TO MS, A549, n = 2: tested at 2 µg; settings: soft agar
Procedure: (§1) The Anchorage Independence/Soft Agar Assay allows assessment of the influence of modulation of gene expression on clonal tumouroid formation by observing and quantifying tumouroid morphology and colony number over an extended period of logarithmic growth thereby ascertaining any cell death is induced.
(§2) Cells are seeded into a 6-well plate and allowed to adhere overnight at 37° C. in a humidified atmosphere containing 5% CO2 in air. Cells are next transfected with siRNA Oligomers, at a concentration of 2 μg, against the genes of interest. Transfections continued for 4 hrs after which the transfection solution is removed and cells are refed with fresh medium and allowed incubate overnight. Transfected cells are next harvested for seeding into soft agar assay as described below. Cells are seeded at 5×10^4 cells per well of a 6 well plate and incubated over a 12/14-Day period whilst proliferating in a 0.05% Agar/Medium cell suspension at 37° C. in a humidified atmosphere containing 5% CO2 in air. Colonies formed are subsequently stained with Crystal Violet, their morphology is assessed and colonies formed are enumerated at a 4× magnification.
(§3) The cytotoxic effect of each gene is determined by a reduction in colony number compared to our MS control, but any influence on the morphology of the colony is also noted.
(§4) Examples of genes with a cytotoxic effect on knockdown as detected by the soft agar assay are outlined in Table 14. Table 14 gives the percentage survival of the indicated cell lines post transfection with siRNA oligomers to target genes relative to that of the missense in an anchorage independent assay. As an internal reference, the known survival gene Survivin was also targeted by siRNA. This table illustrates the magnitude of cytotoxicity induced by the knockdown of each target gene compared to the MS control i.e. the number of colonies formed are stained with Crystal violet and enumerated visually as discussed.

MCF7 cells = test: Anchorage Independence/Soft Agar Assay, MCF7; set-up: PERCENTAGE SURVIVAL RELATIVE TO MS, MCF7, n = 2: tested at 2 µg; settings: soft agar
Procedure: as §1, §2, §3, §4

HCT15 cells [2] = test: Anchorage Independence/Soft Agar Assay, HCT15; set-up: PERCENTAGE SURVIVAL RELATIVE TO MS, HCT15, n = 2: tested at 2 µg; PERCENTAGE SURVIVAL RELATIVE TO MS, HCT15, n = 1: tested at 2 µg siRNA; settings: soft agar
Procedure: as §1, §2, §3, §4

SKOV3 cells = test: 10-14 day Clonagenicity Assay (MTT), SKOV3
Excerpt: (§5) The Clonagenicity Assay represents a Cell Viability Screen that allows assessment of a cytotoxic insult at a variety of seed densities of cancer cell lines over an extended period of logarithmic growth, such that the definitive effect of the test substance can be accurately quantified. In this instance, the ‘cytotoxic insult’ to be tested involves the transfection of siRNA Oligomers to knockdown the expression of novel target Kinases and GPCRs as outlined previously. Cell number is quantified 10-14 days post siRNA transfection by MTT conversion as described in detail in Example 6.
(§6) The Clonagenicity Assay is optimised for each cell line examined with respect to seed number. The seed number varies for each cell line and accounts for the differences in cell size, growth rate and sensitivity to transfection-induced toxicity for each cell line pursued. Cells lines given as models for this example include HCT15, MCF7, A549, SKOV3, DU145, U251, PC3, A498 and HeLa. The siRNA oligo to Survivin serves as a positive control for toxicity in this assay and the missense control oligomer acts as a negative control as described in detail in Examples 5 and 6. The c-Raf, BCL2 and PI3K siRNA oligomers serve as additional controls as previously mentioned. The Clonagenicity assay is performed as outlined below.
(§7) Cells are seeded into a 96-well plate as described below and allowed to adhere overnight at 37° C. in a humidified atmosphere containing 5% CO2 in air. Wells are seeded with an appropriate cell number (cell line dependent) in Column 1 of the 96 well plates and this cell suspension is diluted 1 in 2 across the 96 well plates from Column 1 through to 6 (represented on the x-axis in results). Cells are next transfected with siRNA Oligomers, at a concentration of 2 μg/ml, against the genes of interest. Transfections continue for 4 hrs after which the transfection solution is removed and cells are refed with fresh medium and allow to incubate overnight. An additional media change@24 hrs post transfection is made to minimise toxicity of the transfection reagent. Cells are subsequently incubated for a 10-14 Day period post transfection at a 37° C. incubation as described above. Medium is renewed weekly following which MTT quantification is performed as described in Example 5.
(§8) To be considered cytotoxic, the siRNA Oligo against the gene target must induce a decreased viability in a cell line across at least 2 seed densities in the clonagenicity assay, such that a significant difference between the target gene and MS is observed i.e. no crossing of the Standard Error bars is detected. The average percentage viability, relative to missense, is recorded for the dilution point at which Maximum Toxicity is induced is recorded in Table 13.
(§9) Table 13 Clonagenicity Assay—This table gives the average percentage survival of the indicated cell lines relative to the missense in a clonagenicity assay, over 3 independent experiments. As an internal reference, the known survival gene ‘Survivin’, BCL2, c-Raf and PI3KR1 was also targeted by siRNA. When no Cytotoxic response is detected ‘-’ is recorded.

A549 cells [3] = test: 10-14 day Clonagenicity Assay (MTT), A549; settings: for percentage survival relative to the missense, n = 1: independent experiment n = 1, dilution point of maximum toxicity; for percentage survival relative to the missense, n = 3: independent experiment n = 3, dilution point of maximum toxicity
Excerpt: as §5, §6, §7, §8, §9

U251 cells = test: 10-14 day Clonagenicity Assay (MTT), U251; settings: for percentage survival relative to the missense, n = 1: independent experiment n = 1; for percentage survival relative to the missense, n = 3: independent experiment n = 3
Excerpt: as §5, §6, §7
Note seed density decreases from 3.5 to 0.1×10^3 cells on the x-axis and the y-axis represents cell number as quantified by MTT conversion, 10-14 days post transfection. This decrease is substantially greater that with the apoptosis gene, Survivin. […] Note seed density decreases from 3.5 to 0.1×10^3 cells on the x-axis and the y-axis represents cell number as quantified by MTT conversion, 10-14 days post transfection.
as §8, §9

DU145 cells = test: 10-14 day Clonagenicity Assay (MTT), DU145
Excerpt: as §5, §6, §7, §8, §9

A498 cells = test: 10-14 day Clonagenicity Assay (MTT), A498
Excerpt: as §5, §6, §7, §8, §9

HCT15 cells [4] = test: 10-14 day Clonagenicity Assay (MTT), HCT15; settings: independent experiment n = 1, dilution point of maximum toxicity
Excerpt: as §5, §6, §7, §8, §9

PC3 cells = test: Cell Migration Assay (Chemicon ECM550, Boyden Chamber); settings: 48 hours post siRNA transfection, 24-hour migration, compared to missense and UPA controls
Procedure: Cells are seeded into a 6-well plate and allowed to adhere overnight at 37° C. in a humidified atmosphere containing 5% CO2 in air. Cells are next transfected with siRNA oligonucleotides, at a concentration of 2 μg/ml, against the genes of interest, as described in detail in Example 5. Transfections are continued for 4 hrs after which the transfection solution is removed and cells are refed with fresh medium and allowed incubate overnight. Transfected cells are next harvested for seeding into migration assay as described below.
The Chemicon Cell Migration Assay (ECM550) is used to quantify the number of PC3 cells that successfully migrate across a Boyden Chamber towards a chemoattractant over a 24-hour incubation period. Assessment of PC3 cell migration is performed routinely 48 hours post siRNA Transfection. The effect of reducing the expression of genes of interest is compared to that of a missense control oligomer and to the influence of UPA knockdown, which is reported in the literature to decrease PC3 cell migration. The Migration Assay is performed as per manufacturers inductions. Results are illustrated in FIGS. 39 to 41.
Cells were plated and transfected with the indicated siRNA as described above. Migration of PC3 cells was tracked using a fluorescent dye. Consequently increases in fluorescent units correlates positively with increased migration.

[5] = independent experiment n = 1, dilution point of maximum toxicity
[6] = independent experiment n = 2, dilution point of maximum toxicity
[7] = independent experiment n = 3, dilution point of maximum toxicity
[8] = U251, clonagenicity assay, dilution point of maximum toxicity

## siRNA TLK2B: sense GAUGGCGUGUAGAGAUAAGtt, antisense CUUAUCUCUACACGCCAUCtt (chain 1 GAUGGCGUGUAGAGAUAAGTT; chain 2 CUUAUCUCUACACGCCAUCTT; chemistry not given here)
A549 cells [1]; experiment n = 1
  PERCENTAGE SURVIVAL RELATIVE TO MS, A549, n = 1: 65.8%
A549 cells [1]; experiment n = 2
  PERCENTAGE SURVIVAL RELATIVE TO MS, A549, n = 2: 36.7%
MCF7 cells; experiment n = 1
  PERCENTAGE SURVIVAL RELATIVE TO MS, MCF7, n = 1: 83.7%
MCF7 cells; experiment n = 2
  PERCENTAGE SURVIVAL RELATIVE TO MS, MCF7, n = 2: 99.5%
HCT15 cells [2]; experiment n = 1
  PERCENTAGE SURVIVAL RELATIVE TO MS, HCT15, n = 1: 67.3%
HCT15 cells [2]; experiment n = 2
  PERCENTAGE SURVIVAL RELATIVE TO MS, HCT15, n = 2: 115.6%

## siRNA STK6: sense GCCGGUUCAGAAUCAGAAGtt, antisense CUUCUGAUUCUGAACCGGCtt (sense GCCGGUUCAGAAUCAGAAGTT; antisense CUUCUGAUUCUGAACCGGCTT; chemistry not given here)
SKOV3 cells; [5]
  percentage survival relative to the missense, n = 1: 10.2%
SKOV3 cells; [6]
  percentage survival relative to the missense, n = 2: 35.3%
SKOV3 cells; [7]
  percentage survival relative to the missense, n = 3: 37.2%
A549 cells [3]
  percentage survival relative to the missense, n = 1: 56.8%
  percentage survival relative to the missense, n = 3: 31.6%
A549 cells [3]; [6]
  percentage survival relative to the missense, n = 2: 69.6%
U251 cells; U251, 10-14 days post transfection, MTT, FIG. 35
  viability/cytotoxicity in the Clonagenicity Assay: decreases viability
U251 cells; [8]
  percentage survival relative to the missense, n = 1: 12.8%
  percentage survival relative to the missense, n = 3: 25.8%
U251 cells; U251, clonagenicity assay, independent experiment n = 2, dilution point of maximum toxicity
  percentage survival relative to the missense, n = 2: 51.5%
DU145 cells; [5]
  percentage survival relative to the missense, n = 1: 48.1%
DU145 cells; [6]
  percentage survival relative to the missense, n = 2: 45.3%
DU145 cells; [7]
  percentage survival relative to the missense, n = 3: 34.8%
A498 cells; [5]
  percentage survival relative to the missense, n = 1: 18.5%
A498 cells; [7]
  percentage survival relative to the missense, n = 3: 32.6%
HCT15 cells [4]
  percentage survival relative to the missense, n = 1: 69.6%

## siRNA RBS6PK: sense CGUCCUGGAGUGACAAAUGtt, antisense CAUUUGUCACUCCAGGACGtt (sense CGUCCUGGAGUGACAAAUGTT; antisense CAUUUGUCACUCCAGGACGTT; chemistry not given here)
A549 cells [3]
  percentage survival relative to the missense, n = 1: 79.8%
  percentage survival relative to the missense, n = 3: 71.7%
U251 cells; [8]
  percentage survival relative to the missense, n = 1: 62.5%
  percentage survival relative to the missense, n = 3: 20.2%
PC3 cells
  migration of PC3 cells: inhibition of migration
HCT15 cells [4]
  percentage survival relative to the missense, n = 1: 85.2%
